# From patent US7855232B2, “Organoselenium compound for cancer chemoprevention” (LKT Laboratories, Inc., priority 2001, dated 2010)
# Marks after values point to notes of the source that are not given here.
# System: UDP-Glucuronosyltransferase (UDP-GT)
# Assay: UDP-glucuronosyltransferase (UDP-GT) activity in liver microsomes of treated mice, o-aminophenol substrate
# Type: in vivo, Female A/J mice
# Conditions: for Ratio Test/con (UDP-GT): gavage; for UDP-GT activity (column head prints GSH conc.): gavage in corn oil
# Description: Microsomal samples were assayed for enzymatic conjugation by modifying the procedure of Zakim et al., Methods of Biochemical Analysis, ed. David Glick, 21:1-37, (1973). using o-aminophenol as the substrate. The complete assay solution contains, in a total volume of 500 μl, 0.25 M phosphate buffer (pH 7.6), 0.002 M o-aminophenol, 0.05 M UDPGA, 0.125 M magnesium chloride and 100 μl microsomes. The mixture was incubated for 30 minutes. Reactions were stopped by the addition of 500 μl of TCA-sodium phosphate reagent. The precipitated protein was removed, 100 μl of 0.05% sodium nitrite was added to 950 μl of the supernatent solution and allowed to stand for 5 minutes. 100 μl of 0.5% ammonium sulfamate was added, after 5 minutes. 100 μl of 0.12% N-(-1-naphthyl)ethylenediamine dihydrochloride was added and incubated for 2 hours in the dark; and the difference in the optical density between the blanks and the samples were recorded at 555 nm in a Beckman model DU65 UV-VIS spectrophotometer. The UDP-GT activity was calculated using the extinction coefficient 29 mM-1 cm-1 for the coupled product.
smiles,measurement,setting,value
"N#C[Se]Cc1ccc(C[Se]C#N)s1 [(2) TDMSC, thienyl-2,5-di-methylene selenocyanate]",Ratio Test/con (UDP-GT),dose 0.02 mmol/Kg body weight,1.58
same,UDP-GT activity (column head prints GSH conc.),dose 0.02 mmol/Kg body weight,7.00 ± 1.07 ^c nmol/min/mg protein
same,Ratio Test/con (UDP-GT),dose 0.04 mmol/Kg body weight,2.81
same,UDP-GT activity (column head prints GSH conc.),dose 0.04 mmol/Kg body weight,12.44 ± 2.31 ^c nmol/min/mg protein
same,Ratio Test/con (UDP-GT),"dose 0.04 mmol/Kg body weight, listed as TDMSC 2",3.0
